Laboratory results from ChEMBL document CHEMBL4196217, “Structure-Based Drug Design and Identification of H2O-Soluble and Low Toxic Hexacyclic Camptothecin Derivatives with Improved Efficacy in Cancer and Lethal Inflammation Models in Vivo” (J Med Chem, 2018).
The source made the active and inactive calls. No cut-off for these calls is given here.

Columns and labels:
SMMC-7721 = assay: Cytotoxicity in human SMMC7721 cells assessed as reduction in cell viability incubated for 48 hrs by MTT assay; assay type: functional, cell-based; conditions: SMMC-7721, 48 h
KB = assay: Cytotoxicity in human KB cells assessed as reduction in cell viability incubated for 48 hrs by MTT assay; assay type: functional, cell-based
SK-N-SH = assay: Cytotoxicity in human SK-N-SH cells assessed as reduction in cell viability incubated for 48 hrs by MTT assay; assay type: functional, cell-based
SGC-7901 = assay: Cytotoxicity in human SGC7901 cells assessed as reduction in cell viability incubated for 48 hrs by MTT assay; assay type: functional, cell-based; conditions: SGC-7901, 48 h
MDA-MB-231 = assay: Cytotoxicity in human MDA-MB-231 cells assessed as reduction in cell viability incubated for 48 hrs by MTT assay; assay type: functional, cell-based; conditions: MDA-MB-231, 48 h
QGY-7703 = assay: Cytotoxicity in human QGY7703 cells assessed as reduction in cell viability incubated for 48 hrs by MTT assay; assay type: functional, cell-based; conditions: QGY-7703, 48 h
A549 = assay: cells; conditions: Homo sapiens, A549, 48 h
Description: Cytotoxicity in human A549 cells assessed as reduction in cell viability incubated for 48 hrs by MTT assay

MGC-803 = assay: Cytotoxicity in human MGC803 cells assessed as reduction in cell viability incubated for 48 hrs by MTT assay; assay type: functional, cell-based; conditions: MGC-803, 48 h
HepG2 [1] = assay: Cytotoxicity in human HepG2 cells assessed as reduction in cell viability incubated for 48 hrs by MTT assay; assay type: functional, cell-based; conditions: HepG2, 48 h
MCF7 = assay: cells; conditions: Homo sapiens, MCF7, 48 h
Description: Cytotoxicity in human MCF7 cells assessed as reduction in cell viability incubated for 48 hrs by MTT assay

Bel-7402 = assay: Cytotoxicity in human Bel7402 cells assessed as reduction in cell viability incubated for 48 hrs by MTT assay; assay type: functional, cell-based; conditions: Bel-7402, 48 h
HepG2 [2] = assay: Antitumor activity against human HepG2 cells xenografted in Balb/C mouse assessed as inhibition of tumor growth at dosed intravenously once per week for 30 days followed by 2 weeks observation; assay type: functional, organism-based
Mus musculus [3] = assay: Reduction in IL6 level in C57BL/6 mouse model of LPS-induced sepsis at 2 mg/kg, iv dosed 0.5 hrs before LPS injection followed by 2 mg/kg, iv dosing at 1 hr, 4 hrs, and 8 hrs after LPS treatment; assay type: functional, organism-based
Mus musculus [4] = assay: Reduction in IL6 level in C57BL/6 mouse model of LPS-induced sepsis at 4 mg/kg, po dosed 0.5 hrs before LPS injection followed by 4 mg/kg, po dosing at 1 hr, 4 hrs, and 8 hrs after LPS treatment; assay type: functional, organism-based
[5] = target: T1, DNA topoisomerase 1 (Homo sapiens) (UniProt P11387); assay: Inhibition of human recombinant topoisomerase-1 activity at 100 uM using supercoiled pHOT-1 DNA incubated for 30 mins by ethidium bromide free agarose gel elctrophoresis method
T1 sequence (whole entry): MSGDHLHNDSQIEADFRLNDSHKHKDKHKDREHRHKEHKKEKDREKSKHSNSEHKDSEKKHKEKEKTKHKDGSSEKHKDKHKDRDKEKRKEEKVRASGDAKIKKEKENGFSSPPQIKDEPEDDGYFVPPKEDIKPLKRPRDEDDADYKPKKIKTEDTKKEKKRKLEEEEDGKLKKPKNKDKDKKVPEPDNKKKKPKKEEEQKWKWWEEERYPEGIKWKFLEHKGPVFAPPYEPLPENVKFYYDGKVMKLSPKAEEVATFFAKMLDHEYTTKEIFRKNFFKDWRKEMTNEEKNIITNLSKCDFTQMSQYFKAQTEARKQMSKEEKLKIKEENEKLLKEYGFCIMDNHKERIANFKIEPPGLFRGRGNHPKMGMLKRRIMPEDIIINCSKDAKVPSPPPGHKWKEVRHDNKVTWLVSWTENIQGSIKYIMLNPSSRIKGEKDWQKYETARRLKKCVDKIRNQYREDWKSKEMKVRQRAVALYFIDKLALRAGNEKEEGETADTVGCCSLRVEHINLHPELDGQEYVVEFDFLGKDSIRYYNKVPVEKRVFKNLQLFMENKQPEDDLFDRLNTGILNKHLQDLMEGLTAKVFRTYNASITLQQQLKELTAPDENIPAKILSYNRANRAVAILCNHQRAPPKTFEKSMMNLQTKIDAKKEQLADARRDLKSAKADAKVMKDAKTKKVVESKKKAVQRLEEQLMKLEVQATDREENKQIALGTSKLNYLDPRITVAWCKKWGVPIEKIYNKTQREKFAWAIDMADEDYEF

Mus musculus [6] = assay: Reduction in IL6 level in C57BL/6 mouse model of LPS-induced sepsis at 8 mg/kg, po dosed 0.5 hrs before LPS injection followed by 8 mg/kg, po dosing at 1 hr, 4 hrs, and 8 hrs after LPS treatment; assay type: functional, organism-based
[7] = target: T1, DNA topoisomerase 1 (Homo sapiens); assay: Inhibition of human recombinant topoisomerase-1-mediated DNA cleavage in at 50 uM using supercoiled pHOT-1 DNA incubated for 30 mins by ethidium bromide staining based agarose gel elctrophoresis method
[8] = target: T1, DNA topoisomerase 1 (Homo sapiens); assay: Inhibition of human recombinant topoisomerase-1 activity at 50 uM using supercoiled pHOT-1 DNA incubated for 30 mins by ethidium bromide free agarose gel elctrophoresis method
Mus musculus [9] = assay: Reduction in IL6 level in C57BL/6 mouse model of LPS-induced sepsis at 4 mg/kg, iv dosed 0.5 hrs before LPS injection followed by 4 mg/kg, iv dosing at 1 hr, 4 hrs, and 8 hrs after LPS treatment; assay type: functional, organism-based
Mus musculus [10] = assay: Toxicity in Balb/C mouse administered as daily dose for 1 week measured daily for up to 28 days; assay type: organism-based; conditions: in vivo
[11] = Aqueous solubility of the compound; assay type: physicochemical; conditions: buffer
Mus musculus [12] = assay: Toxicity in Balb/C mouse administered as single dose measured daily for up to 28 days; assay type: organism-based; conditions: in vivo, 672 h
[13] = Drug level in plasma of C57BL/6 mouse at 2 mg/kg, iv measured up to 1 hr by LC-MS/MS analysis; assay type: ADME, organism-based; conditions: in vivo
[14] = Drug metabolism in plasma of C57BL/6 mouse assessed as (9S)-9-Ethyl-9-hydroxy-3-isopropyl-2,3-dihydro[1,3]-oxazino[5,6-f ]pyrano[3',4':6,7]indolizino[1,2-b]quinoline-1,10,13(9H,12H,15H)-trione formation at 2 mg/kg, iv measured up to 1 hr by LC-MS/MS analysis; assay type: ADME, organism-based; conditions: in vivo
[15] = Drug metabolism in plasma of C57BL/6 mouse assessed as (S)-8-Ethyl-8-hydroxy-2-isopropyl-8H-oxazolo[4,5-f ]-pyrano[3',4':6,7]indolizino[1,2-b]quinoline-9,12(11H,14H)-dione formation at 2 mg/kg, iv measured up to 1 hr by LC-MS/MS analysis; assay type: ADME, organism-based; conditions: in vivo
Mus musculus [16] = assay: Toxicity in human HepG2 cells xenografted Balb/C mouse assessed as reduction in body weight at 30 mg/kg, iv dosed once per week for 30 days followed by 2 weeks observation; assay type: organism-based; conditions: in vivo, 336 h
Mus musculus [17] = assay: Toxicity in human HepG2 cells xenografted Balb/C mouse assessed as reduction in body weight at 15 mg/kg, iv dosed once per week for 30 days followed by 2 weeks observation; assay type: organism-based; conditions: in vivo, 336 h
Mus musculus [18] = assay: Protection against LPS-induced lethal inflammation in C57BL/6 mouse model of sepsis assessed as survival at 10 mg/kg, po dosed 0.5 hrs before LPS injection followed by 10 mg/kg, po dosing at 1 hr, 4 hrs, and 8 hrs after LPS treatment; assay type: functional
HepG2 [19] = assay: Antitumor activity against human HepG2 cells xenografted in Balb/C mouse assessed as inhibition of tumor growth at 15 mg/kg, iv dosed once per week for 30 days followed by 2 weeks observation relative untreated control; assay type: functional; conditions: read-out: TGI

Compound | IC50 (SMMC-7721) [nM] | IC50 (KB) [nM] | IC50 (SK-N-SH) [nM] | IC50 (SGC-7901) [nM] | IC50 (MDA-MB-231) [nM] | IC50 (QGY-7703) [nM] | IC50 (A549) [nM] | IC50 (MGC-803) [nM] | IC50 (HepG2 [1]) [nM] | IC50 (MCF7) [nM] | IC50 (Bel-7402) [nM] | further results
CC[C@@]1(OC(=O)CNC(=O)CCC(=O)O)C(=O)OCc2c1cc1n(c2=O)Cc2cc3c(ccc4ocnc43)nc2-1 | > 10000 | 916 | 348 | > 10000 | 348 | > 10000 | 92 | 64 | 55 | > 10000 | 275 | –
CC[C@@]1(O)C(=O)OCc2c1cc1n(c2=O)Cc2cc3c(ccc4oncc43)nc2-1 | > 10000 | 3340 | 463 | > 10000 | 488 | > 10000 | 1030 | 514 | 64 | 1160 | 10500 | –
CCCCc1nc2c(ccc3nc4c(cc32)Cn2c-4cc3c(c2=O)COC(=O)[C@]3(O)CC)o1 | > 10000 | 2250 | – | > 10000 | 562 | > 10000 | 1120 | 85 | 63 | 2140 | 2020 | –
CC[C@@]1(OC(=O)CNC(=O)CCC(=O)O)C(=O)OCc2c1cc1n(c2=O)Cc2cc3c4c(ccc3nc2-1)OC(C(C)C)NC4=O (stereo partly specified) | – | – | – | – | – | – | – | – | – | – | – | TGI (HepG2 [2]): Dose-dependent effect; Activity (Mus musculus [3]): Active; Activity (Mus musculus [4]): Active; inhibition [5]: inactive; Activity (Mus musculus [6]): Active; inhibition [7]: inactive; inhibition [8]: inactive; Activity (Mus musculus [9]): Active
CC[C@@]1(OC(=O)CNC(=O)CCC(=O)[O-])C(=O)OCc2c1cc1n(c2=O)Cc2cc3c(ccc4oc(C(C)C)nc43)nc2-1.[Na+] | – | – | – | – | – | – | – | – | – | – | – | MTD (Mus musculus [10]): 30 mg/kg; solubility [11]: 5070 µg/mL; MTD (Mus musculus [12]): 60 mg/kg
CC[C@@]1(O)C(=O)OCc2c1cc1n(c2=O)Cc2cc3c(ccc4ocnc43)nc2-1 | 3080 | 2570 | – | > 10000 | 1540 | 11600 | 2060 | 231 | 180 | 2310 | 2440 | –
CC[C@@]1(OC(=O)CNC(=O)CCC(=O)O)C(=O)OCc2c1cc1n(c2=O)Cc2cc3c(ccc4oc(C(C)C)nc43)nc2-1 | 8500 | 935 | 510 | > 10000 | 425 | > 10000 | 170 | 62 | 60 | > 10000 | 425 | Drug uptake [13]: Not Active; Drug metabolism [14]: Metabolite_Notdetected; Drug metabolism [15]: Metabolite_Notdetected; Activity (Mus musculus [16]): Non-Toxic; Activity (Mus musculus [17]): Non-Toxic; Activity (Mus musculus [18]): 80%; inhibition in vivo at 15 mg/kg (HepG2 [19]): 86%
